Measurements as given in PMC7321108, “1-Hydroxyanthraquinones Containing Aryl Substituents as Potent and Selective Anticancer Agents” (Molecules, 2020).

Legend:
[1] = test system: pUC19 DNA plasmid; assay: Gel retardation (electrophoretic mobility shift) assay; type: binding; settings: 0.5 µg pUC19 plasmid, 0.025 µM test compound, room temperature 1 h, agarose gel 60 V 4 h
Description: The interaction of compounds 13, 15, 16, 23, 25 27, 28, 35, 40 and 44 with DNA was experimentally confirmed by study of the electrophoretic mobility. For this the gel retardation assay was performed. Doxorubicin in different concentration was used as a positive control. In order to avoid destruction of the possible complex of DNA with compounds, the electrophoresis was performed at low voltage. The results are presented at Figure 3.
To study the interaction between test compounds and DNA the electrophoretic mobility shift assay was performed. 0.5 µg of pUC19 plasmid was incubated with 0.025 µM of test compounds at room temperature for 1 h. After that the electrophoresis was performed in agarose gel (1/2%) in TBE buffer (60 V, 4 h). For visualization the gel was staining with ethidium bromide and analyzed with Bio-Rad gel documentation system.

[2] = test system: DU-145 cells; assay: Cell cycle analysis by flow cytometry (Hoechst 33342), DU-145; type: cell-based, human; settings: DU-145, treated at GI50 concentration, 24 h
Description: We have carried out flow cytometric study of compounds 13, 16 and the isomeric compound 25 (Table 4, Figure 4G,H). Concentrations of 16 and 25 were taken as 5.4 and 14.5 μM, respectively, as per cytotoxic studies (Table 1). After examining the data for 13 (Figure 4G, Table 4), a good number of cells are arrested in Sub-G1, G0/G1 and S phase. Biosynthetic activity is very high during Sub-G1 phase; this is probably achieved by enhancing of apoptosis. The isomeric molecule 25 arrest G0/G1 and S phases, i.e., affecting the DNA synthesis/replication mechanism. Similarly, for 25 a different pattern is observed, i.e., variations at S and G2/M phases were observed, in comparison to the control. […] Some difference in the mechanism of operation of 13 and 25 has been observed during the progression of cell cycle like: Sub-G1 phase was highly disturbed by 13 and S and G0/G1 phases were highly disturbed by 25.
For cell cycle analysis cells were seeded in 6-well plates (30,000 per plate) and incubate for adhesion for 24 h. […] Cells were washed with PBS twice, harvested, pelleted and resuspended in 0.5 mL of PBS. For staining the Hoechst 33342 Ready Flow Reagent (Invitrogen) was used according to the instruction. CytoFLEX flow cytometer (Beckman Coulter) was used for analysis. The results are presented as a percentage of cell population standing in different stages of the cell cycle.

[3] = test system: T98G glioblastoma cells; assay: MTT cytotoxicity assay, T98G; type: cell-based; settings: Homo sapiens, 72 h incubation, mean ± SEM of three experiments, read-out: Cytotoxicity (GI50) against T98G
Summary of the method: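 Viability is measured by MTT reduction after 72 h of continuous compound treatment in RPMI-1640 containing 10% embryonic calf serum. GI50 reflects the concentration causing 50% cell death compared with compound-free wells.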

Row | melting point | SMILES | Retardation of plasmid DNA (electrophoretic mobility) [1] | Population (% Cell Distribution) G0/G1 [2] [%] | Population (% Cell Distribution) G2/M [2] [%] | Population (% Cell Distribution) S [2] [%] | Population (% Cell Distribution) Sub-G1 [2] [%] | Population (% Cell Distribution) Super-G2 [2] [%] | GI50 [3] [µM]
1 | 207.3 °C (dec.) | O=C1c2ccccc2C(=O)c2c(-c3ccccc3)ccc(O)c21 [Compound 13, 1-Hydroxy-4-phenylanthracene-9,10-dione] | cause a retardation of plasmid DNA | 28.7 | 6.3 | 28.7 | 34.6 | 1.6 | 14.1 ± 0.65
2 | 213.6 °C (dec.) | COc1cccc(-c2ccc(O)c3c2C(=O)c2ccccc2C3=O)c1OC [Compound 16, 1-(2,3-Dimethoxyphenyl)-4-hydroxyanthracene-9,10-dione] | cause a retardation of plasmid DNA | 44.3 | 7.3 | 30.7 | 15.7 | 2.0 | 25.1 ± 1.04
